# Experimental data: US9179674B2, “Macrocyclic picolinamide compounds with fungicidal activity” (DOW AGROSCIENCES LLC, priority 2013, dated 2015)
# Legend:
# Type in all cases: in vivo
# Uncinula necator = experiment: Grape Powdery Mildew fungicidal activity (UNCINE); conditions: Erysiphe necator, 24 h, 1 Day Protectant, read-out: Disease Control UNCINE 1DP
# Description: Technical grades of materials were dissolved in acetone, which were then mixed with nine volumes of water containing 110 ppm Triton X-100. The fungicide solutions were applied onto wheat seedlings using an automated booth sprayer to run-off. All sprayed plants were allowed to air dry prior to further handling. All fungicides were evaluated using the aforementioned method for their activity vs. all target diseases. Wheat leaf blotch and brown rust activity were also evaluated using track spray applications, in which case the fungicides were formulated as EC formulations, containing 0.1% Trycol 5941 in the spray solutions. Wheat plants (variety Yuma) were grown from seed in a greenhouse in 50% mineral soil/50% soil-less Metro mix until the first leaf was fully emerged, with 7-10 seedlings per pot. These plants were inoculated with an aqueous spore suspension of Septoria tritici either prior to or after fungicide treatments. After inoculation the plants were kept in 100% relative humidity (one day in a dark dew chamber followed by two to three days in a lighted dew chamber at 20° C.) to permit spores to germinate and infect the leaf. The plants were then transferred to a greenhouse set at 20° C. for disease to develop. When disease symptoms were fully expressed on the 1st leaves of untreated plants, infection levels were assessed on a scale of 0 to 100 percent disease severity. Percent disease control was calculated using the ratio of disease severity on treated plants relative to untreated plants. Evaluation of Fungicidal Activity: Grape Powdery Mildew (Uncinula necator; Bayer code […]) Grape seedlings (variety Carignane) were grown in soil-less Metro mix, with one plant per pot, and used in the test when approximately one month old. Plants were inoculated 24 hr after fungicide treatment by shaking spores from infected leaves over test plants. Plants were maintained in a greenhouse set at 20° C. until disease was fully developed. Fungicide formulation, application and disease assessment on the sprayed leaves followed the procedures as described in the Example A.
# [1] = test system: Magnaporthe grisea; Anamorph: Pyricularia oryzae; experiment: whole plant or invertebrate; conditions: 24 h, read-out: Disease Control PYRIOR 1DP
# [2] = test system: Blumeria graminis f.sp. hordei; experiment: Barley Powdery Mildew fungicidal activity (ERYSGH); conditions: 24 h, 1 Day Protectant, read-out: Disease Control ERYSGH 1DP
# Description: Technical grades of materials were dissolved in acetone, which were then mixed with nine volumes of water containing 110 ppm Triton X-100. The fungicide solutions were applied onto wheat seedlings using an automated booth sprayer to run-off. All sprayed plants were allowed to air dry prior to further handling. All fungicides were evaluated using the aforementioned method for their activity vs. all target diseases. Wheat leaf blotch and brown rust activity were also evaluated using track spray applications, in which case the fungicides were formulated as EC formulations, containing 0.1% Trycol 5941 in the spray solutions. Wheat plants (variety Yuma) were grown from seed in a greenhouse in 50% mineral soil/50% soil-less Metro mix until the first leaf was fully emerged, with 7-10 seedlings per pot. These plants were inoculated with an aqueous spore suspension of Septoria tritici either prior to or after fungicide treatments. After inoculation the plants were kept in 100% relative humidity (one day in a dark dew chamber followed by two to three days in a lighted dew chamber at 20° C.) to permit spores to germinate and infect the leaf. The plants were then transferred to a greenhouse set at 20° C. for disease to develop. When disease symptoms were fully expressed on the 1st leaves of untreated plants, infection levels were assessed on a scale of 0 to 100 percent disease severity. Percent disease control was calculated using the ratio of disease severity on treated plants relative to untreated plants. Evaluation of Fungicidal Activity: Barley Powdery Mildew (Blumeria graminis fsp. hordei; Synonym: Erysiphe graminis fsp. hordei; Bayer Code […]) Barley seedlings (variety Harrington) were propagated in soil-less Metro mix, with each pot having 8 to 12 plants, and used in the test when first leaf was fully emerged. Test plants were inoculated by dusting with infected stock plants 24 hr after fungicide treatments. After inoculation the plants were kept in a greenhouse set at 20° C. for disease to develop. Fungicide formulation, application and disease assessment on the sprayed leaves followed the procedures as described in the Example A.
# Venturia inaequalis = experiment: Apple Scab fungicidal activity (VENTIN); conditions: 100 ppm, 1 Day Protectant
# Description: Technical grades of materials were dissolved in acetone, which were then mixed with nine volumes of water containing 110 ppm Triton X-100. The fungicide solutions were applied onto wheat seedlings using an automated booth sprayer to run-off. All sprayed plants were allowed to air dry prior to further handling. All fungicides were evaluated using the aforementioned method for their activity vs. all target diseases. Wheat leaf blotch and brown rust activity were also evaluated using track spray applications, in which case the fungicides were formulated as EC formulations, containing 0.1% Trycol 5941 in the spray solutions. Wheat plants (variety Yuma) were grown from seed in a greenhouse in 50% mineral soil/50% soil-less Metro mix until the first leaf was fully emerged, with 7-10 seedlings per pot. These plants were inoculated with an aqueous spore suspension of Septoria tritici either prior to or after fungicide treatments. After inoculation the plants were kept in 100% relative humidity (one day in a dark dew chamber followed by two to three days in a lighted dew chamber at 20° C.) to permit spores to germinate and infect the leaf. The plants were then transferred to a greenhouse set at 20° C. for disease to develop. When disease symptoms were fully expressed on the 1st leaves of untreated plants, infection levels were assessed on a scale of 0 to 100 percent disease severity. Percent disease control was calculated using the ratio of disease severity on treated plants relative to untreated plants. Evaluation of Fungicidal Activity: Apple Scab (Venturia inaequalis; Bayer code […]) Apple seedlings (variety McIntosh) were grown in soil-less Metro mix, with one plant per pot. Seedlings with two expanding young leaves at the top (older leaves at bottom of the plants were trimmed) were used in the test. Plants were inoculated with a spore suspension of Venturia inaequalis 24 hr after fungicide treatment and kept in a 22° C. dew chamber with 100% RH for 48 hr, and then moved to a greenhouse set at 20° C. for disease to develop. Fungicide formulation, application and disease assessment on the sprayed leaves followed the procedures as described in the Example A.
Structure (SMILES),pest or weed control at 100 ppm (Uncinula necator) [%],pest or weed control at 100 ppm [1] [%],pest or weed control at 100 ppm [2] [%],Disease Control VENTIN 1DP (Venturia inaequalis)
COc1ccnc(C(=O)N[C@H]2COC[C@H](Cc3ccc(F)cc3)[C@@H](OCC(C)C)[C@H](C)OC2=O)c1OC(C)=O [Compound F60],80 to 100,,,
COc1ccnc(C(=O)N[C@H]2COC[C@H](Cc3ccc(Cl)cc3Cl)[C@@H](OC(=O)C(C)C)[C@H](C)OC2=O)c1OC(C)=O [Compound F73],,80 to 100,,
COc1ccnc(C(=O)N[C@H]2COC[C@H](Cc3ccc(C)cc3)[C@@H](OCC(C)C)[C@H](C)OC2=O)c1OC(C)=O [Compound F80],0 to 80,80 to 100,80 to 100,B (More than 0-Less than 80)
COc1ccnc(C(=O)N[C@H]2COC[C@H](CCc3ccccc3)[C@@H](OCC(C)C)[C@H](C)OC2=O)c1OCOC(C)=O [Compound F82],,80 to 100,,
"COc1ccnc(C(=O)N[C@H]2COC[C@H](Cc3cccc4ccccc34)[C@@H](OC(=O)C(C)C)[C@H](C)OC2=O)c1OCOC(C)=O [Compound F83, (3S,6S,7R,8S)-3-(3-(acetoxymethoxy)-4-methoxypicolin-amido)-6-methyl-8-(naphthalen-1-ylmethyl)-4-oxo-1,5-dioxonan-7-yl isobutyrate]",0 to 80,80 to 100,80 to 100,A (80-100)
COc1ccnc(C(=O)N[C@H]2COC[C@H](Cc3ccc(F)cc3)[C@@H](OCC(C)C)[C@H](C)OC2=O)c1OCOC(C)=O [Compound F96],80 to 100,80 to 100,80 to 100,
COc1ccnc(C(=O)N[C@H]2COC[C@H](CC(F)(F)F)[C@@H](OC3CCCC3)[C@H](C)OC2=O)c1OCOC(C)=O [Compound F105],,80 to 100,,
COc1ccnc(C(=O)N[C@H]2COC[C@H](CCC(C)C)[C@@H](OCCCC(F)(F)F)[C@H](C)OC2=O)c1OCOC(C)=O [Compound F107],0 to 80,80 to 100,0 to 80,
COc1ccnc(C(=O)N[C@H]2COC[C@H](CCC(C)C)[C@@H](OC(=O)C3CC3)[C@H](C)OC2=O)c1OCOC(C)=O [Compound F108],80 to 100,80 to 100,80 to 100,
COc1ccnc(C(=O)N[C@H]2COC[C@H](Cc3ccc(Cl)cc3Cl)[C@@H](OC(=O)C(C)C)[C@H](C)OC2=O)c1OCOC(C)=O [Compound F110],,80 to 100,,
COc1ccnc(C(=O)N[C@H]2COC[C@H](CC3CCCC3)[C@@H](OC(=O)C(C)C)[C@H](C)OC2=O)c1OCOC(C)=O [Compound F114],80 to 100,80 to 100,80 to 100,A (80-100)
COc1ccnc(C(=O)N[C@H]2COC[C@H](Cc3ccc(C)cc3)[C@@H](OCC(C)C)[C@H](C)OC2=O)c1OCOC(C)=O [Compound F117],80 to 100,80 to 100,80 to 100,A (80-100)
CCCCCO[C@@H]1[C@@H](Cc2ccc(Cl)cc2Cl)COC[C@H](NC(=O)c2nccc(OC)c2OCOC(=O)COCC)C(=O)O[C@H]1C [Compound F122],80 to 100,,80 to 100,A (80-100)
CCCCCO[C@@H]1[C@@H](Cc2ccc(Cl)cc2Cl)COC[C@H](NC(=O)c2nccc(OC)c2OC(=O)CCOC)C(=O)O[C@H]1C [Compound F123],80 to 100,,80 to 100,B (More than 0-Less than 80)
